Measured values reported in patent US20100135903A1, “USE OF A DNA DAMAGING AGENT AND A LIGAND FOR THE TREATMENT OF CANCER” (MEDVET SCIENCE PTY. LTD., priority 2006, published 2010).
Read-outs that look alike come from different tables or passages of the source.

What was measured:
HeLa = experiment: Binding of La-specific mAb to apoptotic human cancer cell lines (HeLa); settings: 0.5 μM staurosporine, 20 μg/mL etoposide or 0.1 μg/mL vincristine, 3B9-FITC staining
Jurkat = experiment: Binding of La-specific mAb to apoptotic human cancer cell lines (Jurkat); settings: 0.5 μM staurosporine, 20 μg/mL etoposide or 0.1 μg/mL vincristine, 3B9-FITC staining
U2OS = experiment: Binding of La-specific mAb to apoptotic human cancer cell lines (U2OS); type: cell-based; settings: 0.5 μM staurosporine, 20 μg/mL etoposide, 3B9-FITC staining
Experimental: Direct immunofluorescence staining was performed using 1-2×10^5 cells at 10^6 cells/mL for 30 min at room temperature in PBS containing 0.1% BSA and 5 μg/mL of FITC-conjugated mAb. […] Cell viability was assessed by the exclusion of PI detected using the FL-2 (585-nm filter) or the exclusion of 7-AAD detected using the FL-3 (>650 nm filter).

Raji = experiment: Binding of La-specific mAb to apoptotic human cancer cell lines (Raji); settings: 2 μM staurosporine, 20 μg/mL etoposide or 0.1 μg/mL vincristine, 3B9-FITC staining
apoptotic Jurkat cells = experiment: MDC inhibition of protein crosslinking and 3B9 binding in cisplatin-treated Jurkat cells; type: cell-based, human; settings: for IC50: Homo sapiens, read-out: concentration of MDC required to inhibit half of the binding of 3B9
Experimental: FIG. 18 depicts that La antigen is crosslinked during apoptosis. (A) Jurkat cells incubated in 20 μg/mL cisplatin were removed at specified time points and incubated for 10 min. in 1% Triton X-100 solution before 3B9 binding analysis. Data are presented as density plots of staining with 3B9 vs. 7-AAD. (B) Immunoblots of cell lysates of control and cisplatin-treated Jurkat cells were probed with 3B9 for expression of La (top panels) or actin as a loading control (bottom panels) at specified times. (C) Jurkat cells incubated in the absence or presence of increasing concentrations of cisplatin were labeled with cadaverine-biotin added at 100 μM for 48 h. Cells were stained with strepatavidin-Alexa488 and analyzed by flow cytomtery. Data shown are MFI±SEM (n=3). (D) Jurkat cells incubated in the absence or presence of 20 μg/mL cisplatin were incubated with increasing concentrations of MDC. Cells were analyzed at specified times (24 □, 48 ? and 72 h ▪) for sulforhodamine 101 staining. Inset summarizes the dependence of the protein cross-linking ratio on MDC concentration at 48 h (—) and 72 h ( . . . ) after cisplatin treatment of Jurkat cells. (E) Jurkat cells incubated with cisplatin in the absence or presence of increasing concentrations of MDC were stained with 3B9. 3B9-specific binding is presented as Net MFI±SEM (n=3). Inset summarizes the dependence of 3B9-specific binding on MDC concentration at 24 h (—), 48 h (— —) and 72 h ( . . . ) after cisplatin treatment of Jurkat cells. Data are representative of three identical and independent assays, which produced similar results.
Transglutaminase 2 (TG2)-mediated protein-protein crosslinking in apoptotic cells was investigated using a modification of a previously described method. Briefly, cells were resuspended at 1×10^6 cells/mL in PBS containing 1% Triton X-100, 0.2 μg/mL sulforhodamine 101 and 0.1 μM SytoxGreen. Samples were vortexed and incubated for 5 min. before analysis by flow cytometry where fluorescence from Sytox Green and sulforhodamine were detected using FL-1 and FL-3, respectively. The degree of crosslinking in apoptotic cells was calculated as the ratio of the MFI of sulforhodamine staining in apoptotic cells to the MFI in control cells (protein crosslinking ratio). In other experiments, cells were incubated with PBS or 1% Triton X-100 in PBS for 10 min. at RT with intermittent vortexing.
To test inhibition of protein crosslinking, cultured cells were incubated with increasing concentrations of the competitive TG2inhibitor, monodansylcadaverine (MDC). MDC was dissolved in DMSO at 25 mM and then diluted in culture media before it was added to cell cultures at the specified concentrations for the specified duration. […]

PANC-1 cells [1] = experiment: Cell death and 3B9 binding of PANC-1 cells treated with gemcitabine and TSA in vitro; type: cell-based, human; settings: compared with control or single agent
Experimental: FIG. 15 depicts that 3B9 binding to dead PANC-1 cells is augmented after combination treatment with gemcitabine and TSA produced additive cytotoxicity and DNA-damaging effects. PANC-1 cells were incubated with increasing concentrations of gemcitabine in the absence (clear columns) or presence of 100 ng/mL (hatched columns) or 200 ng/mL (filled columns) of TSA. Analysis was done for viability using 7-AAD (A), 3B9-specific binding (B) and DNA damage using γH2AX staining (C). Data are presented as mean±SEM from three independent experiments. Photomicrographs show PANC-1 cells treated with gemcitabine and TSA (+) or not (−), which were stained with γH2AX-specific mAb and 7-AAD (D).
Apoptosis or cell death was induced by adding cytotoxic drugs to culture media at the specified concentrations. […] Control (untreated) cells had ≧90% viability determined by PI or trypan blue staining (data not shown). […]
Indirect immunofluorescence staining was performed using purified mouse antibodies at 5 μg/mL for 30 min. at room temperature (RT) in PBS followed by Alexa488-conjugated anti-mouse IgG at 2 μg/mL for 30 min. at RT in PBS. […] Cells were washed then incubated (30 min. at RT) with 2 μg/mL of FITC-conjugated anti-rabbit IgG antibody, which was detected using the FL-1 channel. […] Flow cytometry data were analyzed using WinMDI v2.8 (Scripps Research Institute, La Jolla, Calif.). […]

PANC-1 cells [2] = experiment: MTS proliferation assay of PANC-1 cells; type: cell-based, human
Experimental: FIG. 50 depicts that gemcitabine and TSA synergise to reduce proliferation rates among PANC-1 cells in vitro. PANC-1 cells (2×10^4 cells) were seeded in flat bottom 96-well plates overnight using phenol-free RPMI-1640 medium containing 10% FCS (medium). A serial dilution of 2×10^4 cells was used to construct a standard curve for the MTS assay. Triplicate wells were incubated with increasing concentrations of TSA (nM) with or without the addition of increasing concentrations of gemcitabine. Three identical plates were incubated for 24, 48 or 72 h then medium was decanted and fresh medium (100 μL) containing 20 μL MTS/PMS substrate was added to all wells. Assays were performed according to the manufacturer's instructions. The change in the absorbance reading over time was calculated for each condition in units of change per 12 h (upper panel), which was converted to units of cell number change per 12 h (lower panel) using a standard curve of the absorbance reading […] (r^2=0.99).

SMILES	percentage of PI+ and 3B9+ events after subtraction of control (PI+ and Sal5+) events (HeLa) [%]	percentage of PI+ and 3B9+ events after subtraction of control (PI+ and Sal5+) events (Jurkat) [%]	percentage of PI+ and 3B9+ events after subtraction of control (PI+ and Sal5+) events (U2OS) [%]	percentage of PI+ and 3B9+ events after subtraction of control (PI+ and Sal5+) events (Raji) [%]	further results
COc1cc([C@@H]2c3cc4c(cc3[C@@H](O[C@@H]3O[C@@H]5CO[C@@H](C)O[C@H]5[C@H](O)[C@H]3O)[C@H]3COC(=O)[C@H]23)OCO4)cc(OC)c1O [Etoposide, etoposide]	36.1	22.6	28.0	21.3	
CN(C)c1cccc2c(S(=O)(=O)NCCCCCN)cccc12 [MDC, monodansylcadaverine]					IC50 (apoptotic Jurkat cells; 24 h after cisplatin treatment of Jurkat cells): 260 ± 1 µM; IC50 (apoptotic Jurkat cells; 48 h after cisplatin treatment of Jurkat cells): 110 ± 1 µM; IC50 (apoptotic Jurkat cells; 72 h after cisplatin treatment of Jurkat cells): 150 ± 1 µM; effect on protein crosslinking (sulforhodamine crosslinking ratio) (apoptotic Jurkat cells; cisplatin-treated Jurkat cells): dose-dependent inhibitory effect
CN[C@@H]1C[C@H]2O[C@@](C)([C@@H]1OC)n1c3ccccc3c3c4c(c5c6ccccc6n2c5c31)C(=O)NC4 [Staurosporine, staurosporine]	62.5	56.1	65.9	28.8	
CC(/C=C/C(=O)NO)=C\[C@@H](C)C(=O)c1ccc(N(C)C)cc1 [TSA, trichostatin A]					3B9-specific binding to PANC-1 cells (PANC-1 cells [1]): did not alter 3B9 binding; proliferation of PANC-1 cells (PANC-1 cells [2]; TSA alone): inhibited proliferation
CC[C@]1(O)C[C@H]2CN(CCc3c([nH]c4ccccc34)[C@@](C(=O)OC)(c3cc4c(cc3OC)N(C=O)[C@H]3[C@@](O)(C(=O)OC)[C@H](OC(C)=O)[C@]5(CC)C=CCN6CC[C@]43[C@@H]65)C2)C1 [Vincristine, vincristine]	18.6	12.1		9.8	
Nc1ccn([C@@H]2O[C@H](CO)[C@@H](O)C2(F)F)c(=O)n1 [gemcitabine]					proliferation of PANC-1 cells (PANC-1 cells [2]; gemcitabine added at a TSA concentration of 50 nM): completely inhibited; numbers of PANC-1 cells in the cultures (PANC-1 cells [2]; gemcitabine added at a TSA concentration of 200 nM): significantly reduced the numbers
